Patent US10899790B2, “Method for modifying T cell population” (OSAKA UNIVERSITY, priority 2016, dated 2021)

How the values were obtained:
[1] = target: T1, Retinol Dehydrogenase 10 (RDH10) (Homo sapiens, UniProt Q8IZV5); assay: Inhibition of RDH10 enzyme activity (microsomal fraction of RDH10-expressed 293T, all-trans retinol to all-trans retinal, HPLC); type: biochemical; conditions: final concentration of 20 μM; relative to DMSO control (FIG. 1)
T1 construct: expressed in transfected cells; host or cells: 293T (microsomal fraction)
T1 sequence (Q8IZV5 1-341): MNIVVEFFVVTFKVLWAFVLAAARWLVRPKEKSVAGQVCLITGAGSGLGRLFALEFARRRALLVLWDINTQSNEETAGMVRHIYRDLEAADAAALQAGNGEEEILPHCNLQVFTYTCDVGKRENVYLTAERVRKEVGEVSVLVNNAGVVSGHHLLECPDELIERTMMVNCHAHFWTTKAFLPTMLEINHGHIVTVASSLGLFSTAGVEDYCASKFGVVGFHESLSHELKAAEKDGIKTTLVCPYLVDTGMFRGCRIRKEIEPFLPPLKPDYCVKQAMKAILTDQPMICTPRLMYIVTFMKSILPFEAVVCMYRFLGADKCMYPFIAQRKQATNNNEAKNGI
Experimental: All-trans retinol, BSA, and NAD (nicotinamide adenine dinucleotide) as a coenzyme were added to a buffer for reaction (90 mM potassium phosphate buffer, pH7.4, 40 mM KCl) so as to have final concentrations of 10 μM, 10 μM, and 1 mM respectively. This mixture was taken in siliconized tubes by 200 μl for each, the microsomal fractions separated from 293T and RDH10-expressed 293T were added to separate tubes by 10 μl for each, and the mixtures were allowed to react at 37° C. for 15 minutes. After 200 μl of methanol was added to the reaction mixtures to stop the reaction, retinoid was extracted using hexane and concentrated. The concentrated retinoid was dissolved in 150 μl of acetonitrile, separated by HPLC, and subjected to the detection of ultraviolet light absorption at a wavelength of 350 nm, whereby the substrate (all-trans retinol) and the product (all-trans retinal) were detected. In addition, standard samples (all-trans retinol and all-trans retinal) were separated by HPLC and the retention times of the respective standard samples were determined in advance. The solvent for HPLC was acetonitrile: 50 mM ammonium acetate=75:25. As the separation column, Syhergi 4 μm Hydro-RP 80A (manufactured by Phenomenex) was used. In addition, the flow rate was 2.0 ml/min. The RDH10 enzyme activity was calculated by reading the amount of product per fixed time from the chart of HPLC.
All-trans retinol, BSA, and NAD (nicotinamide adenine dinucleotide) as a coenzyme were added to a buffer for reaction (90 mM potassium phosphate buffer, pH7.4, 40 mM KCl) so as to have final concentrations of 10 μM, 10 μM, and 1 mM respectively. This mixture was taken in siliconized tubes by 200 μl for each, the microsomal fraction separated from RDH10-expressed 293T was added to separate tubes by 10 μl for each. The RDH10 inhibitor dissolved in DMSO was added to each tube so as to have a final concentration of 20 μM, and the same amount of DMSO was added to the control tube. The mixture was allowed to react at 37° C. for 15 to 30 minutes, 200 μl of methanol was added to the reaction mixtures, and then retinoid was extracted using hexane and concentrated. The concentrated retinoid was dissolved in 150 μl of acetonitrile, separated by HPLC, and subjected to the detection of ultraviolet light absorption at a wavelength of 350 nm, whereby the substrate (all-trans retinol) and the product (all-trans retinal) were detected. In addition, standard samples (all-trans retinol and all-trans retinal) were separated by HPLC and the retention times of the respective standard samples were determined in advance. The solvent for HPLC was acetonitrile: 50 mM ammonium acetate=75:25. As the separation column, Syhergi 4 μm Hydro-RP 80A (manufactured by Phenomenex) was used. The flow rate was 2.0 ml/min.
The enzyme activity was determined by the waveform area of the product (all-trans retinal) with respective to the waveform area of the non-reacted substrate (all-trans retinol), and the relative value with respect to the enzyme activity in the control is illustrated in FIG. 1. The error bars indicate SD (standard deviation).

[2] = tested on: Healthy human-derived CD4+CD45RO+T cells; assay: Effect in vitro: CD62L and CD127 expression in cultured T cells by flow cytometry; type: cell-based; conditions: 20 μM; anti-CD3, anti-CD28, IL-2; vs DMSO control (FIG. 2)
Experimental: Healthy human-derived CD4^+CD45RO^+T cells (1×10^5) were cultured in the presence of anti-CD3 antibody (2 μg/ml), anti-CD28 antibody (2 μg/ml), IL-2 (20 IU/ml) and RDH10 inhibitors (Compound No. 16 (RDHI-032), Compound No. 17 (RDHI-033), and Compound No. 18 (RDHI-034)) (20 μM for each). In addition, DMSO was used as a control for the RDH10 inhibitor. After seven days […] resuspended in a fresh culture medium to which IL-2 was not added, and cultured for one more day. Thereafter, the expression of CD62L and CD127 in T cells was analyzed by flow cytometry. The culture solution used was X-VIVO15 to which AB serum was added to have a final concentration of 10%.

SMILES	RDH10 enzyme activity inhibitory action [1]	amplification of memory T cells (CD62L+CD127+T cells) [2]	effector T cells (CD62L−CD127−T cells) [2]
COC(=O)[C@@]1(C)CC[C@]2(C)CC[C@]3(C)C(=CC(=O)[C@@H]4[C@@]5(C)CCC(NC(=O)/C=C\C(=O)O)C(C)(C)[C@@H]5CC[C@]43C)[C@H]2C1 (stereo partly drawn) [Compound No. 5, (Z)-4-((4aR,6aR,6bS,8aS,11S,12aS,14aR,14bS)-11-(methoxycarbonyl)-4,4,6a,6b,8a,11,14b-heptamethyl-14-oxo-1,2,3,4,4a,5,6,6a,6b,7,8,8a,9,10,11,12,12a,14,14a,14b-icosahydropicen-3-ylamino)-4-oxobut-2-enoic acid]	relatively potent	tended to amplify memory cells	–
COC(=O)c1ccccc1NC(=O)NC1CC[C@]2(C)[C@H]3C(=O)C=C4[C@H]5C[C@@](C)(C(=O)OC)CC[C@]5(C)CC[C@@]4(C)[C@]3(C)CC[C@H]2C1(C)C (stereo partly drawn) [Compound No. 9, (2S,4aS,6aS,6bR,8aR,12aS,12bR,14bS)-methyl 10-(3-(2-(methoxycarbonyl)phenyl)ureido)-2,4a,6a,6b,9,9,12a-heptamethyl-13-oxo-1,2,3,4,4a,5,6,6a,6b,7,8,8a,9,10,11,12,12a,12b,13,14b-icosahydropicene-2-carboxylate]	relatively potent	–	–
CCOC(=O)CNC(=O)NC1CC[C@]2(C)[C@H]3C(=O)C=C4[C@H]5C[C@@](C)(C(=O)OC)CC[C@]5(C)CC[C@@]4(C)[C@]3(C)CC[C@H]2C1(C)C (stereo partly drawn) [Compound No. 10, (2S,4aS,6aS,6bR,8aR,12aS,12bR,14bS)-methyl 10-(3-(2-ethoxy-2-oxoethyl)ureido)-2,4a,6a,6b,9,9,12a-heptamethyl-13-oxo-1,2,3,4,4a,5,6,6a,6b,7,8,8a,9,10,11,12,12a,12b,13,14b-icosahydropicene-2-carboxylate]	relatively potent	–	–
COC(=O)[C@@]1(C)CC[C@]2(C)CC[C@]3(C)C(=CC(=O)[C@@H]4[C@@]5(C)CCC(NC(=O)N[C@@H](Cc6ccccc6)C(=O)O)C(C)(C)[C@@H]5CC[C@]43C)[C@H]2C1 (stereo partly drawn) [Compound No. 14, (2S)-2-(3-((4aR,6aR,6bS,8aS,11S,12aS,14aR,14bS)-11-(methoxycarbonyl)-4,4,6a,6b,8a,11,14b-heptamethyl-14-oxo-1,2,3,4,4a,5,6,6a,6b,7,8,8a,9,10,11,12,12a,14,14a,14b-icosahydropicen-3-yl)ureido)-3-phenyl propanoic acid]	relatively potent	–	–
CC1(C)C(N)CC[C@]2(C)[C@H]3C(=O)C=C4[C@@H]5C[C@@](C)(C(N)=O)CC[C@]5(C)CC[C@@]4(C)[C@]3(C)CC[C@@H]12 (stereo partly drawn) [Compound No. 16, (2S,4aS,6aS,6bR,8aR,12aS,12bR,14bR)-10-amino-2,4a,6a,6b,9,9,12a-heptamethyl-13-oxo-1,2,3,4,4a,5,6,6a,6b,7,8,8a,9,10,11,12,12a,12b,13,14b-icosahydropicene-2-carboxamide]	relatively potent	amplified memory T cells	decreased
CC(=O)NC1CC[C@]2(C)[C@H]3C(=O)C=C4[C@@H]5C[C@@](C)(C(N)=O)CC[C@]5(C)CC[C@@]4(C)[C@]3(C)CC[C@H]2C1(C)C (stereo partly drawn) [Compound No. 17, (2S,4aS,6aS,6bR,8aR,12aS,12bR,14bR)-10-acetamido-2,4a,6a,6b,9,9,12a-heptamethyl-13-oxo-1,2,3,4,4a,5,6,6a,6b,7,8,8a,9,10,11,12,12a,12b,13,14b-icosahydropicene-2-carboxamide]	relatively potent	amplified memory T cells	decreased
CC1(C)C(NC(=O)c2ccccc2)CC[C@]2(C)[C@H]3C(=O)C=C4[C@@H]5C[C@@](C)(C(N)=O)CC[C@]5(C)CC[C@@]4(C)[C@]3(C)CC[C@@H]12 (stereo partly drawn) [Compound No. 18, (2S,4aS,6aS,6bR,8aR,12aS,12bR,14bR)-10-benzamide-2,4a,6a,6b,9,9,12a-heptamethyl-13-oxo-1,2,3,4,4a,5,6,6a,6b,7,8,8a,9,10,11,12,12a,12b,13,14b-icosahydropicene-2-carboxamide]	relatively potent	amplified memory T cells	decreased
COC(=O)[C@@]1(C)CC[C@]2(C)CC[C@]3(C)C(=CC(=O)[C@@H]4[C@@]5(C)CCC(NC(=O)N6CCOCC6)C(C)(C)[C@@H]5CC[C@]43C)[C@H]2C1 (stereo partly drawn) [Compound No. 22, (2S,4aS,6aS,6bR,8aR,12aS,12bR,14bS)-methyl 2,4a,6a,6b,9,9,12a-heptamethyl-10-(morpholine-4-carboxamido)-13-oxo-1,2,3,4,4a,5,6,6a,6b,7,8,8a,9,10,11,12,12a,12b,13,14b-icosahydropicene-2-carboxylate]	exhibited the RDH10 enzyme activity inhibitory action	tended to amplify memory cells	–
COC(=O)[C@@]1(C)CC[C@]2(C)CC[C@]3(C)C(=CC(=O)[C@@H]4[C@@]5(C)CCC(NC(=O)N6CCOCC6)C(C)(C)[C@@H]5CC[C@]43C)[C@@H]2C1 (stereo partly drawn) [Compound No. 23, (2S,4aS,6aS,6bR,8aR,12aS,12bR,14bR)-methyl 2,4a,6a,6b,9,9,12a-heptamethyl-10-(morpholine-4-carboxamido)-13-oxo-1,2,3,4,4a,5,6,6a,6b,7,8,8a,9,10,11,12,12a,12b,13,14b-icosahydropicene-2-carboxylate]	exhibited the RDH10 enzyme activity inhibitory action	tended to amplify memory cells	–
CC1(C)C(NC(=O)c2ccccc2C(=O)O)CC[C@]2(C)[C@H]3C(=O)C=C4[C@@H]5C[C@@](C)(C(=O)O)CC[C@]5(C)CC[C@@]4(C)[C@]3(C)CC[C@@H]12 (stereo partly drawn) [Compound No. 27, (2S,4aS,6aS,6bR,8aR,12aS,12bR,14bR)-10-(2-carboxybenzamide)-2,4a,6a,6b,9,9,12a-heptamethyl-13-oxo-1,2,3,4,4a,5,6,6a,6b,7,8,8a,9,10,11,12,12a,12b,13,14b-icosahydropicene-2-carboxylic acid]	–	tended to amplify memory cells	–
CC1(C)C(=NO)CC[C@]2(C)[C@H]3C(=O)C=C4[C@H]5C[C@@](C)(C(N)=O)CC[C@]5(C)CC[C@@]4(C)[C@]3(C)CC[C@@H]12 [RDHI-038, (2S,4aS,6aS,6bR,8aR,12aS,12bR,14bS)-10-(hydroxyimino)-2,4a,6a,6b,9,9,12a-heptamethyl-13-oxo-1,2,3,4,4a,5,6,6a,6b,7,8,8a,9,10,11,12,12a,12b,13,14b-icosahydropicene-2-carboxamide]	–	tended to amplify memory cells	–
